Converted amounts (≈) assume the structure as drawn.
Key:
Kleb. aerogenes = assay: MIC, agar-dilution technique, standard in vitro test; assay type: cell-based; details: Klebsiella aerogenes; strain code A8391027; Isosensitest agar; inoculum 10^4 CFU./spot; read-out: minimum inhibitory concentration (MIC)
From the text: (§1) The results set out in the following Table are illustrative of the biological activity of the compounds of the present invention. The listed compounds all carry a 1-methyl-4-pyridinioaminomethyl radical at the 3-position of the cephalosporin nucleus and a variety of known substituents at the 7-position. The following results are those obtained on a standard in vitro test system and using Isosensitest agar medium. The antibacterial activity is described in terms of the minimum inhibitory concentration (MIC) determined by agar-dilution technique with an inoculum size of 10^4 CFU./spot.

Prot. mirabilis = assay: as above; assay type: cell-based; details: Proteus mirabilis; strain code A8432057; Isosensitest agar; inoculum 10^4 CFU./spot; read-out: minimum inhibitory concentration (MIC)
From the text: as §1

Staph. aureus = assay: as above; assay type: cell-based; details: Staphylococcus aureus; strain code A8601052; Isosensitest agar; inoculum 10^4 CFU./spot; read-out: minimum inhibitory concentration (MIC)
From the text: as §1

Serr. marcescens = assay: as above; assay type: cell-based; details: Serratia marcescens; strain code A8421020; Isosensitest agar; inoculum 10^4 CFU./spot; read-out: minimum inhibitory concentration (MIC)
From the text: as §1

Ent. cloacae = assay: as above; assay type: cell-based; details: Enterobacter cloacae; strain code A8401054; Isosensitest agar; inoculum 10^4 CFU./spot; read-out: minimum inhibitory concentration (MIC)
From the text: as §1

P. aeruginosa = assay: as above; assay type: cell-based; details: Pseudomonas aeruginosa; strain code A8101028; Isosensitest agar; inoculum 10^4 CFU./spot; read-out: minimum inhibitory concentration (MIC)
From the text: as §1

Strep. pyogenes = assay: as above; assay type: cell-based; details: Streptococcus pyogenes; strain code A8681018; Isosensitest agar; inoculum 10^4 CFU./spot; read-out: minimum inhibitory concentration (MIC)
From the text: as §1

Sal. dublin = assay: as above; assay type: cell-based; details: Salmonella enterica; strain code A8369001; Isosensitest agar; inoculum 10^4 CFU./spot; read-out: minimum inhibitory concentration (MIC)
From the text: as §1

E. coli = assay: as above; assay type: cell-based; details: Escherichia coli; strain code A8341098; Isosensitest agar; inoculum 10^4 CFU./spot; read-out: minimum inhibitory concentration (MIC)
From the text: as §1

[1] = Toxicity observation in mice after subcutaneous administration; assay type: in vivo; details: two single doses over one day, each at least five times the PD50 against Salmonella dublin
Method: A number of compounds were administered to mice at doses in excess of those required to afford protection against bacterial infections. Thus for example the compounds of Examples 23, 70 and 74 were administered subcutaneously to mice in two single doses over one day, each dose being at least five times the minimum effective dose which protected 50% of the mice against infection with Salmonella dublin (PD50).

Structure (SMILES)	MIC (Kleb. aerogenes) [µg/mL]	MIC (Prot. mirabilis) [µg/mL]	MIC (Staph. aureus) [µg/mL]	MIC (Serr. marcescens) [µg/mL]	MIC (Ent. cloacae) [µg/mL]	MIC (P. aeruginosa) [µg/mL]	MIC (Strep. pyogenes) [µg/mL]	MIC (Sal. dublin) [µg/mL]	MIC (E. coli) [µg/mL]	overt toxic symptoms or side effects [1]
CO/N=C(\C(=O)N[C@@H]1C(=O)N2C(C(=O)O)=C(CNc3cc[n+](C)cc3)CS[C@H]12)c1csc(N)n1 [Example 9]	0.032	0.064	1	0.13	0.064	16	0.016	0.25	0.032	
C[n+]1ccc(NCC2=C(C(=O)[O-])N3C(=O)[C@@H](NC(=O)/C(=N\OC(C)(C)C(=O)O)c4csc(N)n4)[C@H]3SC2)cc1 [Example 23]	0.13 (≈ 0.226 µM)	0.064 (≈ 0.111 µM)	8 (≈ 13.9 µM)	0.25 (≈ 0.434 µM)	0.5 (≈ 0.869 µM)	2 (≈ 3.47 µM)	0.13 (≈ 0.226 µM)	0.25 (≈ 0.434 µM)	0.13 (≈ 0.226 µM)	No overt toxic symptoms or side effects attributable to the administered compounds were noted
C=CCO/N=C(\C(=O)N[C@@H]1C(=O)N2C(C(=O)[O-])=C(CNc3cc[n+](C)cc3)CS[C@H]12)c1csc(N)n1 [Example 70]	0.13 (≈ 0.245 µM)	0.5 (≈ 0.944 µM)	1 (≈ 1.89 µM)	0.5 (≈ 0.944 µM)	1 (≈ 1.89 µM)	32 (≈ 60.4 µM)	< 0.016	0.5 (≈ 0.944 µM)	0.25 (≈ 0.472 µM)	No overt toxic symptoms or side effects attributable to the administered compounds were noted
C[n+]1ccc(NCC2=C(C(=O)[O-])N3C(=O)[C@@H](NC(=O)/C(=N\OC4(C(=O)O)CCC4)c4csc(N)n4)[C@H]3SC2)cc1 [Example 74]	0.5 (≈ 0.851 µM)	0.13 (≈ 0.221 µM)	8 (≈ 13.6 µM)	1 (≈ 1.7 µM)	1 (≈ 1.7 µM)	4 (≈ 6.81 µM)	0.25 (≈ 0.425 µM)	0.13 (≈ 0.221 µM)	0.25 (≈ 0.425 µM)	No overt toxic symptoms or side effects attributable to the administered compounds were noted
CCN1CCN(C(=O)N[C@@H](C(=O)N[C@@H]2C(=O)N3C(C(=O)[O-])=C(CNc4cc[n+](C)cc4)CS[C@H]23)c2ccc(O)cc2)C(=O)C1=O [Example 81]	2 (≈ 3.14 µM)	32 (≈ 50.2 µM)	1 (≈ 1.57 µM)	8 (≈ 12.5 µM)	4 (≈ 6.27 µM)	> 128	0.13 (≈ 0.204 µM)	8 (≈ 12.5 µM)	2 (≈ 3.14 µM)	
C[n+]1ccc(NCC2=C(C(=O)[O-])N3C(=O)[C@@H](NC(=O)[C@H](NC(=O)c4n[nH]c(=O)nc4O)c4ccc(O)cc4)[C@H]3SC2)cc1 [Example 82]	64 (≈ 105 µM)	32 (≈ 52.6 µM)	2 (≈ 3.29 µM)	> 128	> 128	> 12	0.5 (≈ 0.822 µM)	64 (≈ 105 µM)	128 (≈ 210 µM)	
C[n+]1ccc(NCC2=C(C(=O)[O-])N3C(=O)[C@@H](NC(=O)/C(=N\OCC#N)c4csc(N)n4)[C@H]3SC2)cc1 [Example 96]	< 0.016	0.064 (≈ 0.121 µM)	0.5 (≈ 0.946 µM)	0.032 (≈ 0.0605 µM)	0.25 (≈ 0.473 µM)	32 (≈ 60.5 µM)		0.064 (≈ 0.121 µM)	0.032 (≈ 0.0605 µM)	

From US4678781A, “3-substituted-aminomethyl cephalosporin derivatives” (ICI Pharma, priority 1983, dated 1987)
